Measurements as given in US20240309003A1, “HETEROCYCLIC COMPOUNDS AS TRIGGERING RECEPTOR EXPRESSED ON MYELOID CELLS 2 AGONISTS AND METHODS OF USE” (Vigil Neuroscience, Inc., priority 2021, published 2024).

Molecular target: T1, human TREM2 (Homo sapiens, UniProt Q9NZC2)
T1 construct: expressed in transfected cells; host or cells: HEK293T
Assay: TREM2 agonist potency by cellular phosphorylation of Syk (AlphaLisa) in HEK293T-hTREM2 cells
Assay type: cell-based
Method in brief: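 Agonist EC50 from a variable-slope four-parameter fit of % activation, based on AlphaLisa phospho-Syk levels in lysates. Cells: HEK293T-hTREM2 (with DAP12), treated 45 min at room temperature with compound in assay buffer.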

[1] = HEK293 cells expressing human TREM2 and DAP12, Table D
[2] = HEK293 cells expressing human TREM2 and DAP12, Table D-2

T1 sequence (Q9NZC2 19-230): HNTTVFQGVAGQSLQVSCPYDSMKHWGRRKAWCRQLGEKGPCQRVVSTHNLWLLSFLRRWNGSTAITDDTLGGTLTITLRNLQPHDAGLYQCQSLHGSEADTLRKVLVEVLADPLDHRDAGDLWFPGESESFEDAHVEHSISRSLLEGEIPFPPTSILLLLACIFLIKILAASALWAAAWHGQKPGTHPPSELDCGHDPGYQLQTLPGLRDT
T1 sequence (O43914 22-113 partner): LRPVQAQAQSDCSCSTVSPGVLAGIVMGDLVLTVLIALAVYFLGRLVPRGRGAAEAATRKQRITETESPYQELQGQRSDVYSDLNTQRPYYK

## Cc1nc2nc(N3C[C@@H](C)O[C@@H](c4cnn(C5CC5)c4)C3)nc(-c3ccnc(C(F)(F)F)c3)c2nc1C [Example 178]
[1]
  EC50: < 50 nM

## [2H]C([2H])([2H])c1ccc(-c2nc([C@@H]3CCO[C@H](c4cnn(C([2H])([2H])[2H])c4)C3)nc3nc(C([2H])([2H])[2H])c(C([2H])([2H])[2H])nc23)cc1 [Example 174, 6,7-bis(methyl-d3)-2-((2S,4R)-2-(1-(methyl-d3)-1H-pyrazol-4-yl)tetrahydro-2H-pyran-4-yl)-4-(4-(methyl-d3)phenyl)pteridine]
[1]
  EC50: 3000 to 100000 nM

## [2H]C1([2H])C[C@H](c2nc(-c3ccc(F)cc3F)c3nc(C)c(C)nc3n2)C[C@]([2H])(c2cnn(C3CC3)c2)O1 [Example 190, 2-((2R,4S)-2-(1-cyclopropyl-1H-pyrazol-4-yl)tetrahydro-2H-pyran-4-yl-2,6,6-d3)-4-(2,4-difluorophenyl)-6,7-dimethylpteridine]
[1]
  EC50: < 50 nM

## COc1ccc([C@@H]2C[C@H](c3nc(C45CC(C(F)(F)F)(C4)C5)c4nc(C)c(C)nc4n3)CCO2)cn1 [Example 142, 2-((2S,4R)-2-(6-methoxypyridin-3-yl)tetrahydro-2H-pyran-4-yl)-6,7-dimethyl-4-(3-(trifluoromethyl)bicyclo[1.1.1]pentan-1-yl)pteridine]
[1]
  EC50: 50 to 500 nM

## Cc1nc2nc(N3C[C@@H](C)O[C@@H](c4cnn(C5CC5)c4)C3)nc(-c3cc(F)c(C(F)(F)F)cc3F)c2nc1C [Example I-1538, (2S,6R)-2-(1-cyclopropylpyrazol-4-yl)-4-[4-[2,5-difluoro-4-(trifluoromethyl)phenyl]-6,7-dimethyl-pteridin-2-yl]-6-methyl-morpholine]
[2]
  EC50: < 50 nM

## Cc1nc2nc(N3C[C@@H](C(F)F)O[C@@H](c4cnn(C5CC5)c4)C3)nc(-c3ccc(C(F)(F)F)cc3F)c2nc1C (stereo in doubt) [Example I-1598, (2S,6S)-2-(1-cyclopropylpyrazol-4-yl)-6-(difluoromethyl)-4-[4-[2-fluoro-4-(trifluoromethyl)phenyl]-6,7-dimethyl-pteridin-2-yl]morpholine]
[2]
  EC50: < 50 nM

## [2H]C([2H])([2H])c1nc2nc([C@@H]3CCO[C@H](c4cnn(C([2H])([2H])[2H])c4)C3)nc(-c3ccc(C)cc3)c2nc1C([2H])([2H])[2H] [Example 172, 6,7-bis(methyl-d3)-2-((2S,4R)-2-(1-(methyl-d3)-1H-pyrazol-4-yl)tetrahydro-2H-pyran-4-yl)-4-(p-tolyl)pteridine]
[1]
  EC50: 3000 to 100000 nM

## Cc1nc2nc(C3CCO[C@@H](c4cnn(C5CC5)c4)C3)nc(-c3cc(C(F)(F)F)c(F)cc3F)c2nc1C (stereo partly drawn) [Example I-1585, 2-((2R)-2-(1-cyclopropyl-1H-pyrazol-4-yl)tetrahydro-2H-pyran-4-yl)-4-(2,4-difluoro-5-(trifluoromethyl)phenyl)-6,7-dimethylpteridinee]
[2]
  EC50: < 50 nM

## Cc1nc2nc([C@H]3CCO[C@@H](c4cnn(C5CC5)c4)C3)nc(-c3ccc(C4CC4)cc3F)c2nc1C [Example I-1187, 2-((2R,4S)-2-(1-cyclopropyl-1H-pyrazol-4-yl)tetrahydro-2H-pyran-4-yl)-4-(4-cyclopropyl-2-fluorophenyl)-6,7-dimethylpteridine]
[2]
  EC50: 50 to 500 nM

## Cc1nc2nc(N3C[C@@H](C)O[C@@H](c4cnn(C5CC5)c4)C3)nc([C@H]3C[C@H](C(F)(F)F)C3)c2nc1C [Example I-1365, (2S,6R)-2-(1-cyclopropylpyrazol-4-yl)-4-[6,7-dimethyl-4-[3-(trifluoromethyl)cyclobutyl]pteridin-2-yl]-6-methyl-morpholine]
[2]
  EC50: < 50 nM

## COc1cccc([C@H]2C[C@@H](c3nc(C45CC(C(F)(F)F)(C4)C5)c4nc(C)c(C)nc4n3)CCO2)n1 [Example 146, 2-[ (2R,4S)-2-(6-methoxy-2-pyridyl)tetrahydropyran-4-yl] - 6,7-dimethyl-4-[3-(trifluoromethyl)-1-bicyclo[1.1.1]pentanyl]pteridine]
[1]
  EC50: 50 to 500 nM

## Cc1nc2nc([C@H]3C[C@@H](C)O[C@@H](c4cnn(C5CC5)c4)C3)nc(-c3cc(F)c(F)cc3F)c2nc1C [Example 157, 2-((2R,4S,6R)-2-(1-cyclopropyl-1H-pyrazol-4-yl)-6-methyltetrahydro-2H-pyran-4-yl)-6,7-dimethyl-4-(2,4,5-trifluorophenyl)pteridine]
[1]
  EC50: < 50 nM

## Cc1nc2nc([C@@H]3CCO[C@H](c4cnn(C5CC5)c4)C3)nc(-c3ccc(C(F)(F)F)cc3)c2nc1C [Example 138, 2-((2S,4R)-2-(1-cyclopropyl-1H-pyrazol-4-yl)tetrahydro-2H-pyran-4-yl)-6,7-dimethyl-4-(4-(trifluoromethyl)phenyl)pteridine]
[1]
  EC50: 50 to 500 nM

## CCCc1nc2c(-c3ccc(F)cc3F)nc(N3C[C@@H](C)O[C@@H](c4cnn(C5CC5)c4)C3)nc2nc1C [Example I-1293]
[2]
  EC50: < 50 nM

## Cc1cc([C@@H]2C[C@H](c3nc(-c4cc(F)c(Cl)c(F)c4)c4nc(C)c(C)nc4n3)CCO2)ccn1 [Example 132, 4-(4-chloro-3,5-difluorophenyl)-6,7-dimethyl-2-((2S,4R)-2-(2-methylpyridin-4-yl)tetrahydro-2H-pyran-4-yl)pteridine]
[1]
  EC50: 3000 to 100000 nM

## Cc1nc2nc([C@@H]3CCO[C@H](c4cnc(C5CC5)o4)C3)nc(-c3ccc(F)cc3F)c2nc1C [Example I-1700, 2-cyclopropyl-5-[(2S,4R)-4-[4-(2,4-difluorophenyl)-6,7-dimethyl-pteridin-2-yl]tetrahydropyran-2-yl]oxazole]
[2]
  EC50: 50 to 500 nM

## Cc1cc(N2C[C@@H](c3nc(-c4ccc(F)cc4F)c4nc(C)c(C)nc4n3)CCC2=O)ccn1 [Example I-1513]
[2]
  EC50: 50 to 500 nM

## Cc1nc2nc(N3C[C@@H](C)O[C@@H](c4cnn(C5CC5)c4)C3)nc(-c3ccnn3C)c2nc1C [Example 241, (2S,6R)-2-(1-cyclopropyl-1H-pyrazol-4-yl)-4-(6,7-dimethyl-4-(1-methyl-1H-pyrazol-5-yl)pteridin-2-yl)-6-methylmorpholine]
[1]
  EC50: 50 to 500 nM

## Cc1nc2nc(N3C[C@@H](C)O[C@@H](c4cnn(C5CC5)c4)C3)cc(C#CC3CC3)c2nc1C [Example I-1104, (2S,6R)-4-[8-(2-cyclopropylethynyl)-2,3-dimethyl-pyrido[2,3-b]pyrazin-6-yl]-2-(1-cyclopropylpyrazol-4-yl)-6-methyl-morpholine]
[2]
  EC50: 500 to 3000 nM

## Cc1nc2nc([C@H]3CCO[C@@H](c4cnc(C5CC5)o4)C3)nc(-c3ccc(F)cc3F)c2nc1C [Example I-1699, 2-cyclopropyl-5-[(2R,4S)-4-[4-(2,4-difluorophenyl)-6,7-dimethyl-pteridin-2-yl]tetrahydropyran-2-yl]oxazole]
[2]
  EC50: 50 to 500 nM

## Cc1nc2nc(N3C[C@@H](C4CC4)O[C@@H](c4cnn(C5CC5)c4)C3)nc(-c3ccc(F)cc3F)c2nc1C [Example I-1381]
[2]
  EC50: < 50 nM

## Cc1nc2nc(N3CCN(C)[C@H](c4cnn(C5CC5)c4)C3)nc(-c3ccc(Cl)cc3F)c2nc1C [Example 207, (R)-4-(4-chloro-2-fluorophenyl)-2-(3-(1-cyclopropyl-1H-pyrazol-4-yl)-4-methylpiperazin-1-yl)-6,7-dimethylpteridine]
[1]
  EC50: < 50 nM

## [2H]C([2H])([2H])c1nc2nc([C@H]3CCO[C@@H](c4ccnc(C)c4)C3)nc(-c3ccc(Cl)c(F)c3F)c2nc1C([2H])([2H])[2H] [Example 137, 4-(4-chloro-2,3-difluorophenyl)-6,7-bis(methyl-d3)-2-((2R,4S)-2-(2-methylpyridin-4-yl)tetrahydro-2H-pyran-4-yl)pteridine]
[1]
  EC50: < 50 nM

## Cc1nc2nc(C3CCOC(c4cc(C5CC5)n[nH]4)C3)nc(-c3ccc(F)cc3F)c2nc1C (stereo not shown) [Example 166, 2-(2-(3-cyclopropyl-1H-pyrazol-5-yl)tetrahydro-2H-pyran-4-yl)-4-(2,4-difluorophenyl)-6,7-dimethylpteridine]
[1]
  EC50: 50 to 500 nM

## COCCn1cc([C@H]2C[C@@H](c3nc(-c4ccc(F)cc4F)c4nc(C)c(C)nc4n3)CCO2)cn1 (stereo in doubt) [Example I-1658, 4-(2,4-difluorophenyl)-2-(2-(1-(2-methoxyethyl)-1H-pyrazol-4-yl)tetrahydro-2H-pyran-4-yl)-6,7-dimethylpteridine]
[2]
  EC50: 50 to 500 nM

## Cc1nc2nc(N3C[C@@H](C)O[C@@H](c4cnn(C5CC5)c4CO)C3)nc(-c3ccc(F)cc3F)c2nc1C [Example I-1462, [2-cyclopropyl-4-[(2S,6R)-4-[4-(2,4-difluorophenyl)-6,7-dimethyl-pteridin-2-yl]-6-methyl-morpholin-2-yl]pyrazol-3-yl]methanol]
[2]
  EC50: 50 to 500 nM

## Cc1nc2nc(N3C[C@@H](c4cnn(C5CC5)c4)O[C@@H](C(F)F)C3)nc(-c3ccc(F)cc3F)c2nc1C (single isomer, unassigned) [Example I-1524]
[2]
  EC50: < 50 nM

## Cc1ccc2c(-c3ccc(Cl)c(F)c3F)nc([C@H]3CCO[C@@H](c4cnn(C5CC5)c4)C3)nc2n1 [Example 218, 4-(4-chloro-2,3-difluorophenyl)-2-((2R,4S)-2-(1-cyclopropyl-1H-pyrazol-4-yl)tetrahydro-2H-pyran-4-yl)-7-methylpyrido[2,3-d]pyrimidine]
[1]
  EC50: < 50 nM

## Cc1ccc2c(-c3ccc(C(F)(F)F)cc3)nc([C@H]3CCO[C@@H](c4cnn(C5CC5)c4)C3)nc2n1 [Example 217, 2-((2R,4S)-2-(1-cyclopropyl-1H-pyrazol-4-yl)tetrahydro-2H-pyran-4-yl)-7-methyl-4-(4-(trifluoromethyl)phenyl)pyrido [2,3-d]pyrimidine]
[1]
  EC50: < 50 nM

## Cc1cnc2c(-c3ccc(F)cc3F)nc(N3C[C@@H](c4cnn(C5CC5)c4)O[C@@H](C)C3)cc2n1 [Example 208, (2R,6S)-2-(1-cyclopropyl-1H-pyrazol-4-yl)-4-(5-(2,4-difluorophenyl)-2-methylpyrido[3,4-b]pyrazin-7-yl)-6-methylmorpholine]
[1]
  EC50: 500 to 3000 nM

## Cc1nc2nc(C3CCO[C@@H](c4cnn(C5CC5)c4)C3)nc(C3CC4(C3)CC(F)(F)C4)c2nc1C (stereo partly drawn) [Example I-1582, 2-[(2R)-2-(1-cyclopropylpyrazol-4-yl)tetrahydropyran-4-yl]-4-(2,2-difluorospiro[3.3]heptan-6-yl)-6,7-dimethyl-pteridine]
[2]
  EC50: < 50 nM
